The nature of data set [1]: Human HepG2 cytotoxicity assay (CellTiter Glo). In kind it is cell-based. To be noted: HepG2 cells. In general terms: ATP-based viability assays read luminescence as a measure of living cells.
Data set [2] has as its system Dd2 PfATP4^P412L mutant clones. The experiment in a line: 72 h SYBR Green growth inhibition, 2-selected Dd2 clones with PfATP4 P412L (Phillips Lab). In kind it is cell-based, Plasmodium falciparum. To be noted: for EC50: Plasmodium falciparum. The protocol:
(§1) To confirm the MOA for the α-azacyclic acetamides against P. falciparum and to obtain potential information about whether or not they bind PfATP4 at an overlapping site with that of KAE609, we undertook resistance selections using PfDd2 parasites using the published cycling drug selection method. , α-Azacyclic acetamides 2 and 3 were chosen as representative examples of the pyrrole- and indole-based series, respectively. […] Additional cycles were performed at 20 × EC50, until resistant parasites were detected based on a fold change in EC50 compared to the parental clonal Dd2 line (Table S3). Resistant parasites were detected in the 2-selections in all 4 flasks after 4 pulses and for 3-selections in 3 flasks after 5 pulses. Clonal lines were generated from each flask, and one clone per flask was selected for WGS and EC50 determination (Tables S4 and S5). WGS analysis identified two single point mutations in PfATP4 that were not present in the original clonal Dd2 parasite line (Tables and S4). P412L was found in three of four flasks containing 2-selected resistance clones, and F917L was identified in all three flasks containing 3-selected clones and in the fourth flask containing 2-selected clones (Table S4). PfATP4 mutations identified by the WGS analysis in parasite lines were verified by PCR of the pfatp4 gene, followed by Sanger sequencing (Figures S5, S6 and Table S6). An additional protein coding gene (ribosomal protein S8e) was mutated in the 2-selections. However, this mutation was identified in only one of four sequenced clones and is therefore unlikely to be related to resistance to 2 (Figure S7). All three resistant clones derived from the 3-selections harbored an identical mutation in a gene (pfcpu) encoding a conserved protein of unknown function, which was absent in the parental line (Figure S8).
(§2) ABS P. falciparum 3D7, Dd2 or PfNF54^luc parasites (BEI resources) were cultured in RPMI 1640 medium (Millipore Sigma), supplemented with 25 mM HEPES, 0.5% Albumax-I (Thermo Scientific), 23 mM sodium bicarbonate, 92 μM hypoxanthine, and 10 μg/mL gentamicin sulfate at 37 °C, 5% CO2, using deidentified O^+ red blood cells (BioIVT) as previously described. − Growth inhibition assays were conducted in 96 well plate format using the SYBR Green or luciferase reporter assay depending on the strain with modifications as described , (see Supporting Information for a detailed description). Details for the luciferase reporter assay are described below under the BRRoK assay section.
(§3) EC50 and CC50 values were determined by nonlinear regression performed in GraphPad Prism Version 10. Unless otherwise specified, data were fitted to the log(inhibitor) vs response–variable slope with four parameters equation. […] For mutant cell lines and compound combinations where bottom plateau of zero growth was not reached, the bottom of the curve was defined at 0% based on background values obtained for parental Dd2 from the same study.
(§4) Resistant Dd2 parasites were selected using a high-pressure intermittent selection protocol using a previously described method. Selections were set up using 4 flasks per compound starting with approximately 3 × 10^9 parasites per flask (80 mL per flask, 4% hematocrit, 3% parasitemia at the beginning of each pulse, mostly ring-stage parasites via previous sorbitol synchronization. Pulse 1 and 2 (48 h) were conducted at 10xEC50, and subsequent pulses were conducted at 20xEC50. Parasites cleared within 48 h under these conditions. 3-Selections used a total of 4 pulses, while 2-selections required 5 pulses before resistant parasites emerged (Table S3). Culture media was replenished daily for a week after each pulse, then every 2 days with weekly replenishment of blood. Cultures were monitored by microscopy until recrudescence. Clonal parasites were obtained from each flask by limiting dilution and maintained in drug free RPMI-1640 media prior to being analyzed for EC50 shifts. […]

The test system of data set [3] is Dd2 PfATP4^F917L mutant clones. Kind of data set: 72 h SYBR Green growth inhibition, 2- or 3-selected Dd2 clones with PfATP4 F917L (Phillips Lab). In kind it is cell-based, Plasmodium falciparum. As to conditions: for EC50: Plasmodium falciparum. The protocol:
as §1, §2, §3, §4

Another data set relates to Dd2^L350H (PfATP4^L350H). The experiment in a line: Drug susceptibility assay for cross-resistance profiling (Fidock Lab), L350H. In kind it is cell-based, Plasmodium falciparum. As to conditions: Table 3 data set; for EC50: Plasmodium falciparum, DD2, 15-selected line.
Data set [4] has as its system isolated Pf3D7 trophozoites, [Na+]cyt. The experiment in a line: Measurement of P. falciparum cytosolic Na+ concentration (SBFI). As to conditions: 1 μM. In kind it is cell-based, Plasmodium falciparum. How it is done: Measurements were carried out in 96 well plates (excitation wavelengths: 340 and 380 nm; emission wavelength: 515 nm), as described previously. Fluorescence ratio values (340 nm/380 nm) were converted to [Na^+]cyt using a calibration procedure in which parasites were suspended in solutions of varying [Na^+] containing ionophores.

Data set [5] deals with Pf3D7 trophozoite-stage parasites, cytosolic pH (pHcyt); cell-based assay for ATP4 inhibition. The experiment in a line: P. falciparum cytosolic dose response pH assay (BCECF, with concanamycin A). As to conditions: Plasmodium falciparum, read-out: Pf3D7 pH EC50.
Where [6] appears, read: DD2, read-out: EC50, 2-resistant Flask 2 Clone F9.
The mark [7] stands for this setting: DD2, read-out: EC50, 2-resistant Flask 3 Clone F5.
[8] abbreviates: DD2, read-out: EC50, 2-resistant Flask 4 Clone E10.
Setting [9] is: DD2, read-out: EC50, 2-selected flask #3 clone F5.
The mark [10] stands for this setting: DD2, read-out: EC50, 2-resistant Flask 1 Clone B6.
Setting [11] is: DD2, read-out: EC50, 3-resistant Flask 2 Clone D10.
The mark [12] stands for this setting: DD2, read-out: EC50, 3-resistant Flask 3 Clone D8.
[13] abbreviates: DD2, read-out: EC50, 3-resistant Flask 4 Clone B3.
Where [14] appears, read: DD2, read-out: EC50, 3-selected flask #3 clone D8.

The text below walks through data of paper PMC12476894, “Identification of α‑Azacyclic Acetamide-Based Inhibitors of P. falciparum Na^+ Pump (PfATP4) with Fast-Killing Asexual Blood-Stage Antimalarial Activity by Phenotypic Screening” (ACS Infectious Diseases, 2025).

Where two headings read alike, the source gives them in different places.

In general, CC50 refers to the concentration that lowers cell viability or growth by half. Higher therefore signals lower toxicity to the cells. As a reminder, the EC50 is the concentration at which the effect is half-maximal. With `Cc1ccnc(NC(=O)Cn2cccc2-c2nc(-c3ccccc3)cs2)c1` [compound 2, N-(4-methylpyridin-2-yl)-2-(2-(4-phenylthiazol-2-yl)-1H-pyrrol-1-yl)acetamide], the CC50 at 96 h in data set [1] was over 50 µM. Besides, the EC50 in data set [2] (setting [6]) is over 10 µM; in data set [2] (setting [7]), over 10 µM; in data set [2] (setting [8]) it was over 10 µM; in data set [2] (setting [9]) it was 29 ± 6.1 µM; in data set [3] (setting [10]) it was 9.6 ± 2 µM; in data set [3] (setting [11]), over 10 µM. For the same compound, the EC50 was over 10 µM in data set [3] (setting [12]); over 10 µM in data set [3] (setting [13]); 14 ± 0.78 µM in data set [3] (setting [14]); 1.6 ± 0.16 µM in the data set with Dd2^L350H (PfATP4^L350H); 1.6 ± 0.95 µM in data set [5]. Also, the “Fold EC50 change compared to WT Dd2, 2-selected flask #3 clone F5” value in data set [2] is reported as 35 fold. In data set [3], the “Fold EC50 change compared to WT Dd2, 3-selected flask #3 clone D8” value is listed as 17 fold. For the same compound, the “EC50 fold-change vs Dd2-B2, Dd2^L350H” value with Dd2^L350H (PfATP4^L350H) is reported as 4.2 fold. Further, the “increase in [Na+]cyt (in words)” value in data set [4] is “reduced response”.
In data set [1], `Cc1nn(CCNC(=O)Cn2c(C)c(C#N)c3ccccc32)c(C)c1Cl` [compound 3, N-(2-(4-chloro-3,5-dimethyl-1H-pyrazol-1-yl)ethyl)-2-(3-cyano-2-methyl-1H-indol-1-yl)acetamide] had a CC50 at 96 h of over 50 µM. Further, the concentration for a half-maximal effect (EC50) in data set [2] (setting [6]) was over 10 µM; in data set [2] (setting [7]), over 10 µM; in data set [2] (setting [8]) it was over 10 µM; in data set [2] (setting [9]), 11 ± 1.8 µM; in data set [3] (setting [10]) it was over 10 µM; in data set [3] (setting [11]) it was over 10 µM. The EC50 in data set [3] (setting [12]) was over 10 µM; in data set [3] (setting [13]), over 10 µM; in data set [3] (setting [14]), 28 ± 1.6 µM; with Dd2^L350H (PfATP4^L350H) it was 3.4 ± 0.32 µM; in data set [5] it was 1.5 ± 0.047 µM. Also, the “Fold EC50 change compared to WT Dd2, 2-selected flask #3 clone F5” value in data set [2] worked out at 10 fold. Also, the “Fold EC50 change compared to WT Dd2, 3-selected flask #3 clone D8” value in data set [3] worked out at 25 fold. Also, the “EC50 fold-change vs Dd2-B2, Dd2^L350H” value in the data set on Dd2^L350H (PfATP4^L350H) is on record as 6.3 fold. Besides, in data set [4], the “increase in [Na+]cyt (in words)” value was “reduced response”.
